Assay results from patent US20120239131A1, “METHODS AND APPARATUS FOR TREATMENT OF ANEURYSMAL TISSUE” (Medtronic Vascular, Inc., priority 2011, published 2012).

What was measured:
Assay type in all cases: in vivo, ApoE−/− mice
[1] = tested on: MMP-8; experiment: Aortic mural gene expression, RT-PCR (TLDA); conditions: fold change over ApoE−/− control; aorta, 28 days Ang II infusion
Method: (§1) ApoE−/− mice used in this study were divided into different pretreatment groups: 1) Fluvastatin-MF; 2) Doxycycline-MD; 3) Irbesartan-MI; 4) Telmisartan-MT; 5) Control (water) and fed medicated chow or medicated drinking water 1 week prior to pump implantation. AngII (1000 ng·kg^−1 of body weight·min^−1) was infused subcutaneously via Alzet mini-osmotic pumps for 28 days. All mice were maintained on the medicated chow (MI & MT) or medicated drinking water (MF & MD) treatments which were delivered daily for a total of 28 days following pump implantation.
(§2) In order to determine the effect of the various treatments on the progressive enlargement of the experimental AAAs the mice were followed with high frequency trans-abdominal ultrasound. Maximum aortic diameter was measured and recorded prior to pump implantation and then at 3, 7, 14, 21, and 28 days. All mice were sacrificed 28 days after pump implantation. Aortae were harvested and subjected to either histological analysis (Elastic Masson trichome, MAC2, CD31 and TUNEL staining) and analysis of mural gene expression. Plasma drug concentrations of experimental compounds were quantified on the day of sacrifice using high performance liquid chromatography (HPLC).
(§3) Total RNA was extracted from homogenized aortas using the Qiazol lysis reagent and RNeasy Lipid Tissue Mini kit. DNAse treatment was included in the procedure. RNA concentration was determined utilizing the Quant iT RNA assay kit. Complimentary deoxyribonucleic acid (cDNA) was synthesized from 1 μg RNA using High reverse cDNA transcription kit. Briefly the reaction tubes containing RNA, reverse transcriptase, buffer, RNAse inhibitor, and nuclease free water were incubated at 25° C. for 10 minutes to allow annealing. Reverse transcription was performed at 37° C. for 120 min, followed by a 5 sec incubation at 85° C. to inactivate the reverse transcriptase enzyme. The cDNA samples were cooled at 4° C. and stored at −80° C. until further use.
(§4) Real time PCR was performed using a 384-well Taqman low density array (TLDA) card. Each sample specific PCR mix contained 50 ng of total RNA converted to cDNA. The PCR reaction for Taqman assays contained 50 μl Master Mix (Taqman Universal PCR Master Mix,) and 50 ul of cDNA and RNAase free water. Assays were performed to include appropriate controls (no template control). The RT-PCR protocol included an initial step of 50° C. (2 minutes) […], denaturation by a hot start at 95° C. for 10 min, followed by 40 cycles of a 2 step program (denaturation at 95° C. for 15 secs for primer annealing/extension at 60° C. for 1 min). Fluorescence data was collected at 60° C. Fluorescence was quantified with ABI PRISM 7900HT Sequence Detection System. To verify amplification of a specific target cDNA, data generated was analyzed using SDS 2.2.3 software (Sequence Detection System Software, Applied Biosystems). For all amplification plots, the baseline data were set with the automatic CT function available with SDS 2.2.3 calculating the optimal baseline range and threshold value by using the AutoCT algorithm. According to the manufacturer's instruction, a CT value of ≧39 corresponds to nonspecific amplification marking the limits of detection. For endogenous control GAPDH was normalized to B2M. For relative quantification (RQ), pooled ApoE−/− control was used as the calibrator (with expression equal to 1).

[2] = tested on: Tgfβ1; experiment: Aortic mural gene expression, RT-PCR (TLDA); conditions: fold change over ApoE−/− control; aorta, 28 days Ang II infusion
Method: as §1, §2, §3, §4

[3] = tested on: IL-7; experiment: Aortic mural gene expression, RT-PCR (TLDA); conditions: fold change over ApoE−/− control; aorta, 28 days Ang II infusion
Method: as §1, §2, §3, §4

[4] = tested on: Cathepsin S; experiment: Aortic mural gene expression, RT-PCR (TLDA); conditions: fold change over ApoE−/− control; aorta, 28 days Ang II infusion
Method: as §1, §2, §3, §4

[5] = tested on: LOX; experiment: Aortic mural gene expression, RT-PCR (TLDA); conditions: fold change over ApoE−/− control; aorta, 28 days Ang II infusion
Method: as §1, §2, §3, §4

[6] = tested on: Fibronectin -1; experiment: Aortic mural gene expression, RT-PCR (TLDA); conditions: fold change over ApoE−/− control; aorta, 28 days Ang II infusion
Method: as §1, §2, §3, §4

[7] = tested on: MMP-12; experiment: Aortic mural gene expression, RT-PCR (TLDA); conditions: fold change over ApoE−/− control; aorta, 28 days Ang II infusion
Method: as §1, §2, §3, §4

[8] = tested on: CCL2; experiment: Aortic mural gene expression, RT-PCR (TLDA); conditions: fold change over ApoE−/− control; aorta, 28 days Ang II infusion
Method: as §1, §2, §3, §4

[9] = tested on: Osteopontin; experiment: Aortic mural gene expression, RT-PCR (TLDA); conditions: fold change over ApoE−/− control; aorta, 28 days Ang II infusion
Method: as §1, §2, §3, §4

[10] = tested on: ITGAL; experiment: Aortic mural gene expression, RT-PCR (TLDA); conditions: fold change over ApoE−/− control; aorta, 28 days Ang II infusion
Method: as §1, §2, §3, §4

[11] = tested on: genes involved in the pathophysiology of AAA; experiment: Drug inhibition effect on differentially expressed genes, overall; conditions: for Down-regulation of genes involved in the pathophysiology of AAA: ApoE−/− + Ang II AAA model, summary of Table 2; for Total Score: sum of heat map grades over 25 genes, ApoE−/− + Ang II group scored 55
Method: as §1, §2, §3, §4

[12] = tested on: CSF1; experiment: Aortic mural gene expression, RT-PCR (TLDA); conditions: fold change over ApoE−/− control; aorta, 28 days Ang II infusion
Method: Total RNA was extracted from homogenized aortas using the Qiazol lysis reagent and RNeasy Lipid Tissue Mini kit. DNAse treatment was included in the procedure. RNA concentration was determined utilizing the Quant iT RNA assay kit. Complimentary deoxyribonucleic acid (cDNA) was synthesized from 1 μg RNA using High reverse cDNA transcription kit. Briefly the reaction tubes containing RNA, reverse transcriptase, buffer, RNAse inhibitor, and nuclease free water were incubated at 25° C. for 10 minutes to allow annealing. […] The cDNA samples were cooled at 4° C. and stored at −80° C. until further use.
Real time PCR was performed using a 384-well Taqman low density array (TLDA) card. Each sample specific PCR mix contained 50 ng of total RNA converted to cDNA. The PCR reaction for Taqman assays contained 50 μl Master Mix (Taqman Universal PCR Master Mix,) and 50 ul of cDNA and RNAase free water. Assays were performed to include appropriate controls (no template control). The RT-PCR protocol included an initial step of 50° C. […] Fluorescence data was collected at 60° C. Fluorescence was quantified with ABI PRISM 7900HT Sequence Detection System. To verify amplification of a specific target cDNA, data generated was analyzed using SDS 2.2.3 software (Sequence Detection System Software, Applied Biosystems). […] For relative quantification (RQ), pooled ApoE−/− control was used as the calibrator (with expression equal to 1).

SMILES	MMP-8 expression [1]	Tgfβ1 expression [2]	IL-7 expression [3]	Cathepsin S expression [4]	LOX expression [5]	Fibronectin -1 expression [6]	MMP-12 expression [7]	CCL2 expression [8]	Osteopontin expression [9]	ITGAL expression [10]	Down-regulation of genes involved in the pathophysiology of AAA [11]	Total Score [11]	CSF1 expression [12]
CC(C)n1c(/C=C/C(O)CC(O)CC(=O)O)c(-c2ccc(F)cc2)c2ccccc21 (stereo not shown) [Fluvastatin]	++++ (>10.1 = ++++)	+++ (3.1 to 10 = +++)	− (0 to 1 = −)	+++ (3.1 to 10 = +++)	− (0 to 1 = −)	− (0 to 1 = −)	+++ (3.1 to 10 = +++)	++ (1.51 to 3 = ++)	++++ (>10.1 = ++++)	++ (1.51 to 3 = ++)	down-regulating the expression of genes	45	− (0 to 1 = −)
CCCc1nc2c(C)cc(-c3nc4ccccc4n3C)cc2n1Cc1ccc(-c2ccccc2C(=O)O)cc1 [Telmisartan]	− (0 to 1 = −)	− (0 to 1 = −)	+ (1.1 to 1.5 = +)	− (0 to 1 = −)	− (0 to 1 = −)	− (0 to 1 = −)	− (0 to 1 = −)	− (0 to 1 = −)	− (0 to 1 = −)	–	down-regulating the expression of genes	6	− (0 to 1 = −)
